Experimental data published in article PMC7862291, “Full-length in meso structure and mechanism of rat kynurenine 3-monooxygenase inhibition” (Communications Biology, 2021).
Values joined by “and” are separate entries in the source; they are usually repeats but may differ in a detail not shown here. Equal values may be shown once. Read-outs that look alike come from different tables or passages of the source. Each block holds one compound with its values, some of them ahead of it.

What was measured:
[1] = Pharmacokinetic (brain penetration) study in rats; type: in vivo; conditions: Sprague-Dawley Crl:CD(SD), rat, male SD rats, 10 mg/kg ip, 1 h after a single administration
Description: Brain penetration studies were conducted in non-fasted male SD rats [Sprague-Dawley rats Crl:CD(SD), 8 weeks of age]. Compound 1 was intraperitoneally (ip) administered at 10 mg/kg in a solution of saline containing 10% dimethylformamide, 10% propylene glycol, and 4% 1 normality (N) sodium hydrate. […] Blood and brain were collected at 1 h after a single administration. The test compound in plasma samples or brain samples was extracted by deproteination with acetonitrile, and then analysed using LC-MS/MS.

[2] = target: T1, hKMO (Homo sapiens, UniProt O15229); assay: Human KMO enzyme (cell-free) assay, NADPH consumption by absorbance; type: biochemical; conditions: for inhibition rate, Hs-KMO cell-free assay (Figure 1A source data): duplicates
T1 construct: purchased Origene
Description: (§1) Human KMO was purchased from Origene and used to assay compounds. Full-length Rat-KMO purified for crystallisation was used to assay compounds. Full-length Rat-KMO-expressing membranes were used for mutant assays (Fig. 4b) only. […] Images were taken using Odyssey CLX (LI-COR Biosciences) and quantified using ImageStudio2.0 (LI-COR Biosciences) software.
(§2) Test compounds were dissolved in DMSO and diluted with assay buffer containing 50 mM HEPES, 2 mM MgCl2, 0.5 mM EGTA, 1 mM DTT, 0.05% Tween20 and 0.005% of antiform SI (pH = about 7.9) to prepare a 4% DMSO solution. […] After 5 min of pre-incubation, reactions were started by adding 10 μL of substrate solution containing 2.4 mM kynurenine and 0.6 mM NADPH. Reactions were run for 90 min at 30 °C, then terminated by adding 5 μL of stop buffer (40 mM maleimide, 2 mM WST-9 and 0.1 mM 1-methoky PMS in water). […] Liposomal assays were performed in the same manner except that the composition of the assay buffer was changed (phosphate-buffered saline, 2 mM MgCl2, 1 mM DTT, 0.05% Tween 20).
(§3) Compound assays were analysed and plotted on graphs using Prism (GraphPad Software Inc. San Diego, CA, USA).

[3] = target: T2, Rat KMO (Rattus norvegicus, UniProt O88867); assay: Rat KMO enzyme (cell-free) assay, NADPH consumption by absorbance; type: biochemical; conditions: duplicates
T2 construct: The GST-tagged full-length KMO (1-478) baculovirus vector contained a thrombin cleavage site; GST (thrombin cleavage site between GST and KMO) (N, cleaved yes); made in house; host or cells: Spodoptera frugiperda (Sf9), baculovirus
Description: as §1, §2, §3

[4] = target: T3, HEK293 cells stably expressing human KMO (Homo sapiens, UniProt O15229); assay: Cell-based human KMO inhibition assay (LC/MS of 3-hydroxykynurenine); conditions: for inhibition rate, Hs-KMO cellular assay (Figure 1C source data): duplicates
T3 construct: expressed in transfected cells
Description: (§4) HEK293 cells stably expressing human or rat KMO were maintained in DMEM containing 10% fetal bovine serum, 50 units/mL penicillin, 50 μg/mL streptomycin and 0.2 mg⁄mL zeocine. […] After 2 overnights, the medium was replaced with 10 μL/well of assay buffer (1 × HBSS containing 20 mM HEPES). Ten microliters per well of the diluted test compounds (final, 0–30 μM, 0.3% DMSO) were added to the respective wells. After ~30 min of pre-incubation at 37 °C, reactions were started by adding 20 μL of substrate solution containing 0.2 mM kynurenine. Reactions were run for 2 h at 37 °C, the assay buffer was discarded and the plate was immediately frozen and stored at −30 °C until LC/MS analysis.
(§5) An 80 µL volume of cold acetonitrile with 2% formic acid was added to the cell pellet in a 384-well plate and centrifuged at 3000 rpm for 10 min at 4 °C. A 40 µL volume of the supernatant was transferred to a new 384-well plate and evaporated to dryness under nitrogen gas at 45 °C. The residue was reconstituted in 100 µL of acetonitrile/water (10:90, v/v) with 0.1% formic acid, and 1 µL was injected into the LC-MS/MS system.
(§6) LC/MS/MS was performed on a Shimadzu UFLC Nexera X2 (Shimadzu Corporation, Japan) and an QTRAP® 5500 LC-MS/MS System (SCIEX, Framingham, USA). Chromatographic separation was performed using an Allure PFP Propyl analytical column (5 µm, 2.1 × 100 mm) maintained at 50 °C. The autosampler temperature was set at 15 °C. The mobile phase consisted of formic acid/water/acetonitrile/methanol (0.5/500/250/250, v/v/v/v) and the flow rate was set at 0.3 mL/min. 3-hydroxykynurenine was eluted from the LC column at a retention time of 1.2 min. The MS system was operated using electrospray ionization (ESI) in positive mode. The optimum conditions were curtain gas, 20 psi; ion spray voltage, 5500 V; heated nebulizer temperature (TEM), 700 °C; nebulizing gas (GS1), 70 psi; and heater gas (GS2), 70 psi. […] Analyst® software (SCIEX, Framingham, USA) was used for system control and MultiQuant™ Software (SCIEX, Framingham, USA) was used for data analysis.
as §3

[5] = target: T4, HEK293 cells stably expressing rat KMO (Rattus norvegicus, UniProt O88867); assay: Cell-based rat KMO inhibition assay (LC/MS of 3-hydroxykynurenine); conditions: duplicates
T4 construct: expressed in transfected cells
Description: as §4, §5, §6, §3

[6] = test system: KMO; set-up: method as in ref 27 Jacobs et al; conditions: 600 μM kynurenine, recombinant protein, fluorescence; ref 27 Jacobs et al; cited from earlier work
[7] = test system: KMO; set-up: method as in ref 20 Winkler et al; conditions: 100 kynurenine, CHO cells, LC/MS; ref 20 Winkler et al; read-out: cellular IC50 (Winkler et al); cited from earlier work

T4 sequence (O88867 whole entry): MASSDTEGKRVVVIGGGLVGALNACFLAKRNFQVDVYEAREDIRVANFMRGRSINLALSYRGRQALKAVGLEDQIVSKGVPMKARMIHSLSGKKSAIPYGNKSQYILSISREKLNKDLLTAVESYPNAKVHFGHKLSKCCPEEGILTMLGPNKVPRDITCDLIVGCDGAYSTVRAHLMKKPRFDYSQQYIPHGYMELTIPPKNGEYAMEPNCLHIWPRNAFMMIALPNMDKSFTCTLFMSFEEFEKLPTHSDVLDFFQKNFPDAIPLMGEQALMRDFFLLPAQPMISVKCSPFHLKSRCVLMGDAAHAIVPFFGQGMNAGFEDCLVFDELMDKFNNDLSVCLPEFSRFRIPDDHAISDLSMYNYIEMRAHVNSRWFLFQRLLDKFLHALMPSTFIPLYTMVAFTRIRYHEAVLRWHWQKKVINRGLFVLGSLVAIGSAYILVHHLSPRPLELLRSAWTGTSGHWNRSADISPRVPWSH
T2 sequence (O88867 whole entry): as above
T3 sequence (O15229 whole entry): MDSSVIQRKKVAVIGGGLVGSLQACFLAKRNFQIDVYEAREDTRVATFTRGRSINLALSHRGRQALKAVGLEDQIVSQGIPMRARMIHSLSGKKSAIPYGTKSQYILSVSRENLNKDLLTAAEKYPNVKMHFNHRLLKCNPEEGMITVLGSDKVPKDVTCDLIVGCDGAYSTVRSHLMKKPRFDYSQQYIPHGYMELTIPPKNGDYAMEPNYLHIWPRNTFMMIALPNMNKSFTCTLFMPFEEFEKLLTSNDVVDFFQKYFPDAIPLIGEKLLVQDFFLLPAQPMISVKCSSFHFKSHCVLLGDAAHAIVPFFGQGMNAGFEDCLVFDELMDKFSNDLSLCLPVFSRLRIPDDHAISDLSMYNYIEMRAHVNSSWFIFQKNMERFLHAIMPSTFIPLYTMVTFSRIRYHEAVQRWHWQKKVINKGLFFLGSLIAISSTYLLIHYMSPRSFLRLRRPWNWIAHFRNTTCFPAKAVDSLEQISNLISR
T1 sequence (O15229 whole entry): as above

- Kp at 1 h ([1]; brain/plasma): 0.8
- concentration at 1 h ([1]; brain, read-out: Exposure in brain): 6020 ng/g
- concentration at 1 h ([1]; plasma, read-out: Exposure in plasma): 7560 ng/mL
SMILES: Cn1c(=O)[nH]c(=O)c2cc(-c3ncccc3-c3ccc(Cl)c(F)c3)ccc21 [Compound 5]

SMILES: COc1ccc(S(=O)(=O)Nc2nc(-c3cccc([N+](=O)[O-])c3)cs2)cc1OC [Ro 61-8048, reference compound]
- IC50 ([2]; 1200 μM kynurenine, recombinant protein, absorbance, species not given, read-out: IC50 (cell-free assay, this study)): 1400 nM
- inhibition rate, Hs-KMO cell-free assay (Figure 1A source data) ([2]; conc 0.03 μM): 7.785% and 11.650%
- inhibition rate, Hs-KMO cell-free assay (Figure 1A source data) ([2]; conc 0.1 μM): 5.377% and 7.729%
- inhibition rate, Hs-KMO cell-free assay (Figure 1A source data) ([2]; conc 0.3 μM): 12.406% and 14.871%
- inhibition rate, Hs-KMO cell-free assay (Figure 1A source data) ([2]; conc 1 μM): 37.359% and 37.779%
- inhibition rate, Hs-KMO cell-free assay (Figure 1A source data) ([2]; conc 3 μM): 72.366% and 74.382%
- inhibition rate, Hs-KMO cell-free assay (Figure 1A source data) ([2]; conc 10 μM): 94.630%
- inhibition rate, Hs-KMO cell-free assay (Figure 1A source data) ([2]; conc 30 μM): 102.611% and 104.600%
- inhibition rate, Hs-KMO cell-free assay (Figure 1A source data) ([2]; conc 100 μM): 98.579% and 94.322%
- inhibition rate, Rat-KMO cell-free assay (Figure 1B source data) ([3]; conc 0.03 μM): 9.186% and 13.905%
- inhibition rate, Rat-KMO cell-free assay (Figure 1B source data) ([3]; conc 0.1 μM): 21.990% and 21.221%
- inhibition rate, Rat-KMO cell-free assay (Figure 1B source data) ([3]; conc 0.3 μM): 47.520% and 47.997%
- inhibition rate, Rat-KMO cell-free assay (Figure 1B source data) ([3]; conc 1 μM): 71.114% and 72.121%
- inhibition rate, Rat-KMO cell-free assay (Figure 1B source data) ([3]; conc 3 μM): 77.185% and 81.347%
- inhibition rate, Rat-KMO cell-free assay (Figure 1B source data) ([3]; conc 10 μM): 87.099% and 89.538%
- inhibition rate, Rat-KMO cell-free assay (Figure 1B source data) ([3]; conc 30 μM): 98.075% and 95.980%
- inhibition rate, Rat-KMO cell-free assay (Figure 1B source data) ([3]; conc 100 μM): 89.963% and 91.580%
- IC50 ([4]; 100 μM kynurenine, HEK293, LC/MS, species not given, read-out: cellular IC50 (this study)): 1200 nM
- inhibition rate, Hs-KMO cellular assay (Figure 1C source data) ([4]; conc 0.03 μM): 4.914% and 11.092%
- inhibition rate, Hs-KMO cellular assay (Figure 1C source data) ([4]; conc 0.1 μM): 7.800% and 13.947%
- inhibition rate, Hs-KMO cellular assay (Figure 1C source data) ([4]; conc 0.3 μM): 9.982% and 16.379%
- inhibition rate, Hs-KMO cellular assay (Figure 1C source data) ([4]; conc 1 μM): 34.540% and 30.293%
- inhibition rate, Hs-KMO cellular assay (Figure 1C source data) ([4]; conc 3 μM): 100.863% and 99.409%
- inhibition rate, Hs-KMO cellular assay (Figure 1C source data) ([4]; conc 10 μM): 104.869% and 104.896%
- inhibition rate, Hs-KMO cellular assay (Figure 1C source data) ([4]; conc 30 μM): 105.453%
- inhibition rate, Rat-KMO cellular assay (Figure 1D source data) ([5]; conc 0.03 μM): 12.914% and 13.940%
- inhibition rate, Rat-KMO cellular assay (Figure 1D source data) ([5]; conc 0.1 μM): 6.038% and 6.971%
- inhibition rate, Rat-KMO cellular assay (Figure 1D source data) ([5]; conc 0.3 μM): 6.605% and 2.668%
- inhibition rate, Rat-KMO cellular assay (Figure 1D source data) ([5]; conc 1 μM): 18.248% and 25.802%
- inhibition rate, Rat-KMO cellular assay (Figure 1D source data) ([5]; conc 3 μM): 86.872% and 86.727%
- inhibition rate, Rat-KMO cellular assay (Figure 1D source data) ([5]; conc 10 μM): 97.726% and 97.601%
- inhibition rate, Rat-KMO cellular assay (Figure 1D source data) ([5]; conc 30 μM): 99.995% and 100.184%
- IC50 [6]: 780 ± 1000 nM
- IC50 [7]: 640 nM
